For 5 cell lines, relative viability results are on record in the supplement of paper PMC10307832.

Test in all cases: relative viability (nuclei count vs DMSO), 5 days (fraction); higher = more cells survive
Compound in the assay “Ibrutinib + OSI-027”: C=CC(=O)N1CCC[C@@H](n2nc(-c3ccc(Oc4ccccc4)cc3)c3c(N)ncnc32)C1 [Ibrutinib] + COc1cccc2cc(-c3nc([C@H]4CC[C@H](C(=O)O)CC4)n4ncnc(N)c34)[nH]c12 [OSI-027] (partner 0.5 µM)
In outline: (§1)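 Five library-drug doses in √10 steps were combined with a fixed anchor-drug dose, or a single drug was given alone, by pin tool to lung cancer cell lines in 1536-well plates the day after seeding. Nuclei were stained and counted after 5 days. Relative viability is the nuclei count in treated wells over that in vehicle wells, taken as the median of duplicate plates.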

Compound in the assay “Ibrutinib + Crizotinib”: C=CC(=O)N1CCC[C@@H](n2nc(-c3ccc(Oc4ccccc4)cc3)c3c(N)ncnc32)C1 [Ibrutinib] + C[C@@H](Oc1cc(-c2cnn(C3CCNCC3)c2)cnc1N)c1c(Cl)ccc(F)c1Cl [Crizotinib] (partner 1 µM)
Summed up: as §1

Compound in the assay “Ibrutinib + Linsitinib”: C=CC(=O)N1CCC[C@@H](n2nc(-c3ccc(Oc4ccccc4)cc3)c3c(N)ncnc32)C1 [Ibrutinib] + C[C@]1(O)C[C@@H](c2nc(-c3ccc4ccc(-c5ccccc5)nc4c3)c3c(N)nccn32)C1 [Linsitinib] (partner 1 µM)
In outline:
as §1

Compound in the assay “Ibrutinib + Vorinostat”: C=CC(=O)N1CCC[C@@H](n2nc(-c3ccc(Oc4ccccc4)cc3)c3c(N)ncnc32)C1 [Ibrutinib] + O=C(CCCCCCC(=O)Nc1ccccc1)NO [Vorinostat] (partner 1 µM)
Summed up:
as §1

For PC-14, the relative viability came out at 0.71 with Ibrutinib + OSI-027 (first compound 0.005 µM); 0.689 in the assay with Ibrutinib + OSI-027 (first compound 0.01581 µM); 0.641 with Ibrutinib + OSI-027 (first compound 0.05 µM); 0.907 with Ibrutinib + OSI-027 (first compound 0.1581 µM); 0.554 with Ibrutinib + OSI-027 (first compound 0.5 µM); 0.886 with Ibrutinib + Crizotinib (first compound 0.005 µM). Besides, the relative viability with Ibrutinib + Crizotinib (first compound 0.01581 µM) stood at 0.968; with Ibrutinib + Crizotinib (first compound 0.05 µM), 0.896; in the assay with Ibrutinib + Crizotinib (first compound 0.1581 µM) it was 0.901; with Ibrutinib + Crizotinib (first compound 0.5 µM) it was 0.563; with Ibrutinib + Linsitinib (first compound 0.005 µM), 1; in the assay with Ibrutinib + Linsitinib (first compound 0.01581 µM) it was 0.949. Moreover, the relative viability was found to be 0.976 with Ibrutinib + Linsitinib (first compound 0.05 µM); 0.902 in the assay with Ibrutinib + Linsitinib (first compound 0.1581 µM); 0.462 with Ibrutinib + Linsitinib (first compound 0.5 µM); 0.723 in the assay with Ibrutinib + Vorinostat (first compound 0.005 µM); 0.662 in the assay with Ibrutinib + Vorinostat (first compound 0.01581 µM); 0.611 with Ibrutinib + Vorinostat (first compound 0.05 µM). The relative viability is 0.944 in the assay with Ibrutinib + Vorinostat (first compound 0.1581 µM) and 0.324 with Ibrutinib + Vorinostat (first compound 0.5 µM).
For the cell line RERF-LC-KJ, the relative viability in the assay with Ibrutinib + OSI-027 (first compound 0.005 µM) was 0.516; with Ibrutinib + OSI-027 (first compound 0.01581 µM), 0.441; in the assay with Ibrutinib + OSI-027 (first compound 0.05 µM), 0.497; with Ibrutinib + OSI-027 (first compound 0.1581 µM), 0.579; with Ibrutinib + OSI-027 (first compound 0.5 µM) it was 0.489; with Ibrutinib + Crizotinib (first compound 0.005 µM) it was 0.865. The relative viability is 0.742 in the assay with Ibrutinib + Crizotinib (first compound 0.01581 µM); 0.825 in the assay with Ibrutinib + Crizotinib (first compound 0.05 µM); 0.889 with Ibrutinib + Crizotinib (first compound 0.1581 µM); 0.815 in the assay with Ibrutinib + Crizotinib (first compound 0.5 µM); 0.903 with Ibrutinib + Linsitinib (first compound 0.005 µM); 0.804 with Ibrutinib + Linsitinib (first compound 0.01581 µM). In addition, the relative viability in the assay with Ibrutinib + Linsitinib (first compound 0.05 µM) came out at 0.818; with Ibrutinib + Linsitinib (first compound 0.1581 µM), 0.824; in the assay with Ibrutinib + Linsitinib (first compound 0.5 µM), 0.778; with Ibrutinib + Vorinostat (first compound 0.005 µM), 0.631; with Ibrutinib + Vorinostat (first compound 0.01581 µM), 0.703; with Ibrutinib + Vorinostat (first compound 0.05 µM), 0.593. The relative viability with Ibrutinib + Vorinostat (first compound 0.1581 µM) amounted to 0.668; in the assay with Ibrutinib + Vorinostat (first compound 0.5 µM), 0.659.
As to SK-LU-1, the relative viability with Ibrutinib + OSI-027 (first compound 0.005 µM) stood at 0.262; in the assay with Ibrutinib + OSI-027 (first compound 0.01581 µM), 0.324; in the assay with Ibrutinib + OSI-027 (first compound 0.05 µM) it was 0.301; in the assay with Ibrutinib + OSI-027 (first compound 0.1581 µM) it was 0.397; with Ibrutinib + OSI-027 (first compound 0.5 µM) it was 0.381; in the assay with Ibrutinib + Crizotinib (first compound 0.005 µM) it was 0.869. Besides, the relative viability in the assay with Ibrutinib + Crizotinib (first compound 0.01581 µM) is 0.741; with Ibrutinib + Crizotinib (first compound 0.05 µM), 1.04; in the assay with Ibrutinib + Crizotinib (first compound 0.1581 µM), 1.1; with Ibrutinib + Crizotinib (first compound 0.5 µM), 0.859; with Ibrutinib + Linsitinib (first compound 0.005 µM), 0.776; with Ibrutinib + Linsitinib (first compound 0.01581 µM), 1.02. Further, the relative viability was determined as 1.21 in the assay with Ibrutinib + Linsitinib (first compound 0.05 µM); 1.21 with Ibrutinib + Linsitinib (first compound 0.1581 µM); 1.04 with Ibrutinib + Linsitinib (first compound 0.5 µM); 0.883 in the assay with Ibrutinib + Vorinostat (first compound 0.005 µM); 0.715 in the assay with Ibrutinib + Vorinostat (first compound 0.01581 µM); 0.765 with Ibrutinib + Vorinostat (first compound 0.05 µM). Also, the results for the relative viability in the assay with Ibrutinib + Vorinostat (first compound 0.1581 µM) and in the assay with Ibrutinib + Vorinostat (first compound 0.5 µM) were 0.813 and 0.766, respectively.
As for SW 1573, the relative viability with Ibrutinib + OSI-027 (first compound 0.005 µM) came to 0.436; in the assay with Ibrutinib + OSI-027 (first compound 0.01581 µM) it was 0.517; with Ibrutinib + OSI-027 (first compound 0.05 µM), 0.653; with Ibrutinib + OSI-027 (first compound 0.1581 µM) it was 0.704; in the assay with Ibrutinib + OSI-027 (first compound 0.5 µM) it was 0.651; with Ibrutinib + Crizotinib (first compound 0.005 µM), 0.87. The relative viability with Ibrutinib + Crizotinib (first compound 0.01581 µM) stood at 0.807; with Ibrutinib + Crizotinib (first compound 0.05 µM), 0.803; in the assay with Ibrutinib + Crizotinib (first compound 0.1581 µM), 0.986; with Ibrutinib + Crizotinib (first compound 0.5 µM), 0.77; in the assay with Ibrutinib + Linsitinib (first compound 0.005 µM) it was 0.732; in the assay with Ibrutinib + Linsitinib (first compound 0.01581 µM) it was 0.761. Also, the relative viability in the assay with Ibrutinib + Linsitinib (first compound 0.05 µM) was determined as 0.925; with Ibrutinib + Linsitinib (first compound 0.1581 µM) it was 0.814; in the assay with Ibrutinib + Linsitinib (first compound 0.5 µM) it was 0.809; with Ibrutinib + Vorinostat (first compound 0.01581 µM), 0.793; with Ibrutinib + Vorinostat (first compound 0.05 µM) it was 0.694; with Ibrutinib + Vorinostat (first compound 0.1581 µM), 1.06. Also, in the assay with Ibrutinib + Vorinostat (first compound 0.5 µM), the relative viability was determined as 1.06.
On to UMC-11, for which the relative viability is 0.306 in the assay with Ibrutinib + OSI-027 (first compound 0.005 µM); 0.441 with Ibrutinib + OSI-027 (first compound 0.01581 µM); 0.495 with Ibrutinib + OSI-027 (first compound 0.05 µM); 0.541 with Ibrutinib + OSI-027 (first compound 0.1581 µM); 0.5 with Ibrutinib + OSI-027 (first compound 0.5 µM); 0.538 with Ibrutinib + Crizotinib (first compound 0.005 µM). Further, the relative viability came out at 0.598 with Ibrutinib + Crizotinib (first compound 0.01581 µM); 0.596 with Ibrutinib + Crizotinib (first compound 0.05 µM); 0.681 with Ibrutinib + Crizotinib (first compound 0.1581 µM); 0.57 with Ibrutinib + Crizotinib (first compound 0.5 µM); 0.903 in the assay with Ibrutinib + Linsitinib (first compound 0.005 µM); 0.987 in the assay with Ibrutinib + Linsitinib (first compound 0.01581 µM). The relative viability came out at 1.17 with Ibrutinib + Linsitinib (first compound 0.05 µM); 1.14 with Ibrutinib + Linsitinib (first compound 0.1581 µM); 0.938 with Ibrutinib + Linsitinib (first compound 0.5 µM); 0.39 with Ibrutinib + Vorinostat (first compound 0.005 µM); 0.376 with Ibrutinib + Vorinostat (first compound 0.01581 µM); 0.454 in the assay with Ibrutinib + Vorinostat (first compound 0.05 µM). In the assay with Ibrutinib + Vorinostat (first compound 0.1581 µM), the relative viability came out at 0.345.
